Results: US20080221021A1, “Novel Corticotropin-Releasing Factor Receptor 1 (Crfr1) Agonist” (Max-Planck-Gesellschaft Zur Forderung Der, priority 2004, published 2008)
Entries after “also recorded” stand apart in the source; their conditions may differ. Where no end group is shown, it is not given here.

Experiments:
[1] = type: physicochemical
Description: A high solubility under physiological conditions is a crucial prerequisite especially for compounds to be injected into the rodent brain. […] Both peptides were soluble in a concentration range of up to 1000 μM (FIG. 6), so that there was no limitation in view of the agonist doses typically used in behavioral experiments. […] Consequently, solutions of cortagine to be used in the pharmacological assays were prepared in phosphate buffered saline (PBS; pH=7.4).

[2] = Isoelectric point by isoelectric focusing; type: physicochemical; conditions: IEF, pH range 3-10
Description: After dissolving the peptides in artificial cerebrospinal fluid (aCSF; 124 mM NaCl, 26.4 mM NaHCO3, 10 mM glucose, 3.3 mM KCl, 2.5 mM CaCl2 , 2.4 mM MgSO4 , 1.2 mM KH2PO4) at pH=7.4, the maximum solubility cmax was determined by amino acid analysis as described (21). The isoelectric point of the peptides was determined by isoelectric focusing (IEF) as described (21) with a Bio-Rad IEF cell system using Bio-Rad IEF strips in the pH range 3-10.

[3] = target: T1, rCRFR1 (Rattus norvegicus, UniProt P35353); test: Agonist-induced intracellular cAMP accumulation in HEK 293 cells producing rCRFR1; type: cell-based
T1 construct: expressed in transfected cells
T1 sequence (P35353 24-415): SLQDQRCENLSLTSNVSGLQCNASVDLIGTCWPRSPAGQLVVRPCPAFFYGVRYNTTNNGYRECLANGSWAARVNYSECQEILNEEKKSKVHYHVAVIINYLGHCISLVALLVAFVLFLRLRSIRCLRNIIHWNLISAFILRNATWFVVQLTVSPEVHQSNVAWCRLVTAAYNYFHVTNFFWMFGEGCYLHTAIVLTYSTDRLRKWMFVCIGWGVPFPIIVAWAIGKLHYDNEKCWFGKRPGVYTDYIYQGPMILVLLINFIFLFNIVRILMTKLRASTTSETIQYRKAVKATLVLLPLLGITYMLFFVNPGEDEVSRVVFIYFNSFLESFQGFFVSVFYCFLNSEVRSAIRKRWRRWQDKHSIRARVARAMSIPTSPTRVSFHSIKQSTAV
Description: The biological potency of cortagine and OCRF was evaluated by the determination of the EC50 values for agonist-induced intracellular accumulation of cAMP in HEK 293 cells producing either rCRFR1 or mCRFR2β.
The HEK 293 cells were plated into 24 well cell culture plates and stimulated as described (21) using increasing concentrations of the agonists under investigation. Intracellular cAMP was measured with the Biotrak™ cAMP [^125I] SPA system (Amersham Pharmacia Biotech) according to the manufacturer's product manual.

[4] = target: T2, rCRFBP (Rattus norvegicus, UniProt P24388); test: Competition binding scintillation proximity assay, rCRFBP; conditions: binding analysis, in words
T2 construct: His6 (C); made in house; host or cells: HEK 293 cells, stably transfected
T2 sequence (P24388 25-322): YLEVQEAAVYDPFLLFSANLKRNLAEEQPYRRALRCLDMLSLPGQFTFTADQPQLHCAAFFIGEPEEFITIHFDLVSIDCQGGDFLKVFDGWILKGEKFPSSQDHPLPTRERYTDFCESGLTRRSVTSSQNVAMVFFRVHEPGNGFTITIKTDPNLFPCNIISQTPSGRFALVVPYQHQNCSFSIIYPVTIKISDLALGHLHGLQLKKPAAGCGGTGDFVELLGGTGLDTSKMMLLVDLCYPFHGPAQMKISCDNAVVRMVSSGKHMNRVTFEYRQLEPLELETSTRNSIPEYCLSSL
Description: Crude membrane fractions were prepared from human embryonic kidney (HEK) 293 cells stably expressing either cloned rat CRFR1α(rCRFR1) or mouse CRFR2β (mCRFR2β) as described (20). Rat CRFBP (rCRFBP) was produced in HEK 293 cells stably transfected with cDNA coding for rCRFBP C-terminally fused with a His6 sequence as described (36). The scintillation proximity assays (SPA) for binding analysis of CRFR and CRFBP have been already described in detail (21, 22). For competition binding assays of rCRFR1 and rCRFBP, [^125I-Tyr^0]h/rCRF was used as radiolabeled peptide, whereas [^125I-Tyr^0]Svg was employed for mCRFR2β.

[5] = test system: C57BL/6J mice; test: Elevated plus-maze test, i.c.v. injection; type: in vivo, mouse; conditions: for anxiety-like behavior (time spent in open arms, number of open arm entries) / locomotor activity (total distance crossed): 30 min before EPM, vs aCSF
Description: (§1) Nine-week old male C57BL/6J (Centre D'Elevage Janvier, Sultzfeld, France) were individually housed in macrolon cages according to the recommendations of the Society for Laboratory Animal Science (Germany). All experiments were carried out in accordance with the European Council Directive (86/609/EEC) with the permission of the Animal Protection Law enforced by the District Government of Braunschweig, State of Lower Saxony, Germany, which is in full agreement with the APA ethical guidelines. All efforts were made to minimize animal suffering. The number of mice per group was 9-11.
(§2) All peptides were dissolved in aCSF except for the CRFR2-selective antagonist antisauvagine-30 (aSvg-30) (20) that was initially dissolved in 10 mM aqueous acetic acid and diluted with the same volume of two-fold concentrated aCSF. The final pH of the peptide solutions was 7.4. The exact peptide concentration of the injection solutions was determined by amino acid analysis with a Beckman HPLC analyzer system 6300. Total hydrolysis of the peptides was carried out in the presence of 1 nmol norvaline as internal standard with 6 M HCl for 24 h at 100° C.
The elevated plus-maze (EPM) behavior of C57BL/6J mice cannulated in the lateral ventricles or lateral intermediate septal area (23) was investigated 30 min after injection of the CRFR1 agonist under investigation for 5 min in the EPM test (24). The CRFR2-selective antagonist aSvg-30 in aCSF or aCSF alone were injected 15 min before agonist administration. The behavior of the mice was recorded by a video camera connected to a PC and analyzed by the Technical & Scientific Equipment software VIDEOMOT 2. The time spent, distance crossed, and number of entries in the open arms, closed arms, and center were recorded. The cannular placement was confirmed for each mouse by histological examination of the brains after methylene blue injection (23). The behavioral data are expressed as mean±SEM, and were analyzed using a two- and one-way ANOVA, with Bonferroni/Dunn test applied, post hoc, for individual between-group comparisons at the p<0.05 level of significance. Shift of preference from the open to the closed arms was interpreted as an increase of anxiety-like behavior. Locomotor activity was determined with this test by the distance travelled.

[6] = test system: C57BL/6J mice; test: Elevated plus-maze test, intraseptal (i.s.) injection; type: in vivo, mouse; conditions: 100 ng into lateral septum (i.s.), 30 min before EPM, vs aCSF
Description: as §1
as §2, with “Total hydrolysis of the peptides was carried out in the presence of 1 nmol norvaline as internal standard with 6 M HCl for 24 h at 100° C.” left out
The elevated plus-maze (EPM) behavior of C57BL/6J mice cannulated in the lateral ventricles or lateral intermediate septal area (23) was investigated 30 min after injection of the CRFR1 agonist under investigation for 5 min in the EPM test (24). […] The behavior of the mice was recorded by a video camera connected to a PC and analyzed by the Technical & Scientific Equipment software VIDEOMOT 2. […]

[7] = i.c.v., two-way ANOVA over doses, EPM

## [Glu^21, Ala^40] [Svg^1-12]x[h/rCRF^14-30]x[Svg^30-40] (XGPPISIDLSLELLREVLEMERAEQLAQQAANNRLLLDTA; X not resolved here; ends and bridges not checked; also: Glx at position 1 not given here (Gln/Glu/pGlu)) [cortagine]
[1]
  solubility in 10 mM aqueous acetic acid: insoluble
[2]
  isoelectric point pI: 4.8
[3]; cAMP accumulation, in words
  biological potency at rCRFR1: high agonistic potency and high
[3]; ratio of biological potencies (cAMP)
  CRFR1-selectivity over CRFR2β, EC50(mCRFR2)/EC50(rCRFR1): 89
[4]
  affinity to CRFBP: negligible; also recorded: does not display any detectable affinity
[4]; listed as compound 9
  affinity to CRFBP: completely abolished
[5]; 10 ng i.c.v.
  anxiety-like behavior (time spent in open arms, number of open arm entries): ineffective
  locomotor activity (total distance crossed): ineffective
[5]; 30 ng i.c.v.
  anxiety-like behavior (time spent in open arms, number of open arm entries): significantly decreased time spent in open arms; also recorded: increased significantly anxiety-like behavior; also recorded: increased anxiety levels
  locomotor activity (total distance crossed): decreased significantly; also recorded: reduced locomotor activity
[5]; 100 ng i.c.v.
  anxiety-like behavior (time spent in open arms, number of open arm entries): increased significantly anxiety-like behavior; also recorded: increased anxiety levels
  locomotor activity (total distance crossed): decreased significantly; also recorded: reduced locomotor activity
[5]; 300 ng i.c.v.
  anxiety-like behavior (time spent in open arms, number of open arm entries): increased significantly anxiety-like behavior; also recorded: increased anxiety levels
  locomotor activity (total distance crossed): decreased significantly; also recorded: reduced locomotor activity
[5]; [7]
  ability to modulate locomotor activity, cortagine vs oCRF: did not differ
  anxiogenic potency compared to oCRF: significantly higher anxiogenic potency; also recorded: doses lower than required of OCRF
[6]
  anxiety-like behavior (time spent in open arms, number of open arm entries): not
